Patent US7507727B2, “Substituted quinobenzoxazine analogs and methods of using thereof” (Cylene Pharmaceuticals, Inc., priority 2003, dated 2009)
Like-named read-outs stand apart in the source and are kept apart here.

Assays:
HeLa cells = test: MTS cell proliferation and/or cytotoxicity assay; assay type: cell-based, Human
Procedure, shortened: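 HeLa cells seeded at 4,500 cells/well, exposed to compounds from day 1 for 3 days at 37 °C, 5% CO2. Viability by MTS/PMS (20:1) with 4 h incubation, absorbance at 490 nm. Values are concentrations giving 50% antiproliferative response.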

[1] = molecular target: c-Myc template DNA (c-myc quadruplex); test: Quadruplex binding / stop assay (Taq polymerase arrest, capillary electrophoresis)
[2] = Homo sapiens, HeLa, 72 h, concentration at which 50% of antiproliferative cell response is seen, 3 days incubation, read-out: MTS Data Hella
[3] = read-out: Stop Data c-Myc μM, concentration at which 50% of the DNA was arrested (arrested:full-length 1:1)
[4] = Homo sapiens, HeLa, HeLa cells, MTS, read-out: Hela MTS
[5] = read-out: S DATA, Table 1D, stop assay data

Row | SMILES | IC50 (HeLa cells; [2]) | IC50 [1, 3] | IC50 (HeLa cells; concentration at which 50% of antiproliferative cell response is seen, 3 days incubation, read-out: MTS Data Hella) | IC50 (HeLa cells; [4]) | IC50 [1, 5]
1 | O=C(NCCN1CCOCC1)c1cn2c3c(c(N4CC5CCCNC5C4)c(F)cc3c1=O)Oc1cc3ccccc3cc1-2 (centres unmarked) [compound 566] | 30 nM | 0.25 µM |  |  | 
2 | O=C(NCCN1CCCC1)c1cn2c3cc4c(=O)c5ccccc5c(=O)c4cc3oc3c(NCCN4CCCC4)c(F)cc(c1=O)c32 [compound 568] | 4100 nM | 0.22 µM |  |  | 
3 | CN(C)CCCCNc1c(F)cc2c(=O)c(C(=O)NCCC3CCCN3C)cn3c4cc5oc6cc([N+](=O)[O-])ccc6[nH]c5cc4oc1c23 (centres unmarked) [compound 569] | 7800 nM | 0.18 µM |  |  | 
4 | CN1CCCC1CCNC(=O)c1cn2c3cc4oc5cc([N+](=O)[O-])ccc5[nH]c4cc3oc3c(NCCN4CCCC4)c(F)cc(c1=O)c32 (centres unmarked) [compound 570] | 6800 nM | 0.18 µM |  |  | 
5 | CN1CCCC1CCNc1c(F)cc2c(=O)c(C(=O)NCCN3CCCC3)cn3c4cc5oc6cc([N+](=O)[O-])ccc6[nH]c5cc4oc1c23 (centres unmarked) [compound 571] | 4800 nM | 0.18 µM |  |  | 
6 | CN1CCCC1CCNC(=O)c1cn2c3cc4oc5cc([N+](=O)[O-])ccc5[nH]c4cc3oc3c(NCCC4CCCN4C)c(F)cc(c1=O)c32 (centres unmarked) [compound 572] | 4800 nM | 0.18 µM |  |  | 
7 | CN1CCN(CCCNC(=O)c2cn3c4c(c(N5CC[C@@H](NC(=O)CCNCCC6CCCN6C)C5)c(F)cc4c2=O)Oc2cc4c(cc2-3)oc2ccccc24)CC1 (some centres unmarked) [compound 573] | 4500 nM | 0.18 µM |  |  | 
8 | CN(C)CCCCNC(=O)c1cn2c3cc4c(=O)c5ccccc5c(=O)c4cc3oc3c(NCCN4CCCC4)c(F)cc(c1=O)c32 [compound 574] | 4000 nM | 0.18 µM |  |  | 
9 | CN1CCCC1CCNC(=O)c1cn2c3cc4c(cc3oc3c(NCCN5CCCC5)c(F)cc(c1=O)c32)c(=O)c1ccccc14 (centres unmarked) [compound 575] | 2100 nM | 0.18 µM |  |  | 
10 | CN(C)CCCCNC(=O)c1cn2c3cc4c(cc3oc3c(NCCCCN(C)C)c(F)cc(c1=O)c32)c(=O)c1ccccc14 [compound 576] | 2100 nM | 0.18 µM |  |  | 
11 | O=C(NCCN1CCCC1)c1cn2c3cc4c(cc3oc3c(NCCN5CCCC5)c(F)cc(c1=O)c32)c(=O)c1ccccc14 [compound 577] | 1100 nM | 0.18 µM |  |  | 
12 | NC(N)=NCCCCNC(=O)c1cn2c3c(c(N4CC[C@@H](N)C4)c(F)cc3c1=O)Oc1cc3ccccc3cc1-2 [compound 578] | 580 nM | 0.18 µM |  |  | 
13 | N[C@H]1CCN(c2c(F)cc3c(=O)c(C(=O)NCCN4CCOCC4)cn4c5cc6c(cc5oc2c34)c(=O)c2ccccc26)C1 [compound 579] | 490 nM | 0.18 µM |  |  | 
14 | CN(C)CCCCNC(=O)c1cn2c3cc4c(cc3oc3c(N5CC[C@H](N)C5)c(F)cc(c1=O)c32)c(=O)c1ccccc14 [compound 580] | 300 nM | 0.18 µM |  |  | 
15 | O=C(NCCN1CCCC1)c1cn2c3c(c(N4CC5CCCNC5C4)c(F)cc3c1=O)Oc1cc3ccccc3cc1-2 (centres unmarked) [compound 581] |  | 0.18 µM | 300 nM |  | 
16 | CN1CCCC1CCNC(=O)c1cn2c3cc4c(cc3oc3c(N5CC[C@H](N)C5)c(F)cc(c1=O)c32)c(=O)c1ccccc14 (some centres unmarked) [compound 582] | 280 nM | 0.18 µM |  |  | 
17 | N[C@H]1CCN(c2c(F)cc3c(=O)c(C(=O)NCCN4CCCC4)cn4c5cc6c(cc5oc2c34)c(=O)c2ccccc26)C1 [compound 583] | 250 nM | 0.18 µM |  |  | 
18 | CN(C)CCCCNC(=O)c1cn2c3cc4c(cc3oc3c(NCCN5CCCC5)c(F)cc(c1=O)c32)c(=O)c1ccccc14 [compound 584] | 190 nM | 0.18 µM |  |  | 
19 | O=C(NCCCN1CCOCC1)c1cn2c3cc4c(=O)c5ccccc5c(=O)c4cc3oc3c(NCCN4CCCC4)c(F)cc(c1=O)c32 [compound 591] | 3300 nM | 0.13 µM |  |  | 
20 | CN1CCCC1CCNC(=O)c1cn2c3cc4c(=O)c5ccccc5c(=O)c4cc3oc3c(NCCN4CCCC4)c(F)cc(c1=O)c32 (centres unmarked) [compound 592] | 3800 nM | 0.1 µM |  |  | 
21 | CN1CCN(CCCNC(=O)c2cn3c4c(c(N5CCC(N)C5)c(F)cc4c2=O)Oc2cc4c(cc2-3)oc2ccccc24)CC1 (centres unmarked) [compound 1467] | 350 nM | 0.25 µM |  |  | 
22 | CN1CCCC1CCNC(=O)c1cn2c3c(c(NCCc4c[nH]cn4)c(F)cc3c1=O)Oc1cc3ccccc3cc1-2 (centres unmarked) [compound 1468] | 350 nM | 0.375 µM |  |  | 
23 | CN1CCCC1CCNC(=O)c1cn2c3c(c(N4CCC(CCCC5CCNCC5)CC4)c(F)cc3c1=O)Oc1cc3ccccc3cc1-2 (centres unmarked) [compound 1494] |  |  |  | 310 nM | 0.375 µM
24 | CN1CCCC1CCNC(=O)c1cn2c3c(c(N[C@@H]4CN5CCC4CC5)c(F)cc3c1=O)Oc1cc3ccccc3cc1-2 (some centres unmarked) [compound 1497] |  |  |  | 390 nM | 0.5 µM
25 | CN1CCCC1CCNC(=O)c1cn2c3c(c(N4CCC(c5cnccn5)C4)c(F)cc3c1=O)Oc1cc3ccccc3cc1-2 (centres unmarked) [compound 1512] |  |  |  | 3100 nM | 0.78 µM
26 | CN(C)CCCCNC(=O)c1cn2c3c(c(NCCN4CCCC4)ccc3c1=O)Oc1cc3ccccc3cc1-2 [compound 1520] |  |  |  | 200 nM | 0.375 µM

Row | SMILES | IC50 (HeLa cells; [2]) | IC50 [1, 3] | IC50 (HeLa cells; concentration at which 50% of antiproliferative cell response is seen, 3 days incubation, read-out: MTS Data Hella) | IC50 (HeLa cells; [4]) | IC50 [1, 5]
27 | NC1CCN(c2ccc3c(=O)c(C(=O)NCCCN4CCOCC4)cn4c3c2Oc2cc3ccccc3cc2-4)C1 (centres unmarked) [compound 1557] |  |  |  | 1500 nM | 0.75 µM
28 | CC1(C)CC(NC(=O)c2cn3c4c(c(N5CCC(N)C5)ccc4c2=O)Oc2cc4ccccc4cc2-3)CC(C)(C)N1 (centres unmarked) [compound 1558] |  |  |  | 240 nM | 0.375 µM
29 | CN(C)CCCCNC(=O)c1cn2c3c(c(N4CCC(N)C4)ccc3c1=O)Oc1cc3ccccc3cc1-2 (centres unmarked) [compound 1559] |  |  |  | 240 nM | 0.18 µM
30 | O=C(NCCN1CCCC1)c1cn2c3c(c(N4CC5CCCNC5C4)c(F)cc3c1=O)Oc1cc3ccccc3cc1-2 (centres unmarked) [compound 1635] |  |  |  | 300 nM | 0.18 µM
31 | CN1CCCC1CCNC(=O)c1cn2c3c(c(N4CC5CCCNC5C4)c(F)cc3c1=O)Oc1cc3ccccc3cc1-2 (centres unmarked) [compound 1636] |  |  |  | 150 nM | 0.375 µM
32 | O=C(NCCCN1CCOCC1)c1cn2c3c(c(N4CC5CCCNC5C4)c(F)cc3c1=O)Oc1cc3ccccc3cc1-2 (centres unmarked) [compound 1637] |  |  |  | 100 nM | 0.375 µM
33 | CN(C)CCCCNC(=O)c1cn2c3c(c(N4CC5CCCNC5C4)c(F)cc3c1=O)Oc1cc3ccccc3cc1-2 (centres unmarked) [compound 1639] |  |  |  | 100 nM | 0.375 µM
34 | O=C(NCCN1CCOCC1)c1cn2c3c(c(N4CC5CCCNC5C4)c(F)cc3c1=O)Oc1cc3ccccc3cc1-2 (centres unmarked) [compound 1640] |  |  |  | 30 nM | 0.25 µM
35 | CC1(C)CC(NC(=O)c2cn3c4c(c(N5CC6CCCNC6C5)c(F)cc4c2=O)Oc2cc4ccccc4cc2-3)CC(C)(C)N1 (centres unmarked) [compound 1642] |  |  |  | 180 nM | 0.5 µM
36 | CN(C)CC(C)(C)CNC(=O)c1cn2c3c(c(N4CC5CCCNC5C4)c(F)cc3c1=O)Oc1cc3ccccc3cc1-2 (centres unmarked) [compound 1644] |  |  |  | 650 nM | 0.375 µM
37 | CN1CCCC1CCNC(=O)c1cn2c3c(c(N4CCC(N)C4)c(F)cc3c1=O)Nc1cc3ccccc3cc1-2 (centres unmarked) [compound 1645] |  |  |  | 3300 nM | 0.62 µM
38 | N=C(N)NCCNC(=O)c1cn2c3c(c(N4CC5CCCNC5C4)c(F)cc3c1=O)Oc1cc3ccccc3cc1-2 (centres unmarked) [compound 1646] |  |  |  | 400 nM | 0.64 µM
39 | N=C(N)NCC1CCCC(CNC(=O)c2cn3c4c(c(N5CCC(N)C5)c(F)cc4c2=O)Oc2cc4ccccc4cc2-3)C1 (centres unmarked) [compound 1649] |  |  |  | 2200 nM | 0.37 µM
40 | CN1CCCC1CCNC(=O)c1cn2c3c(c(NCCc4c[nH]cn4)c(F)cc3c1=O)Oc1cc3ccccc3cc1-2 (centres unmarked) [compound 1657] |  |  |  | 500 nM | 0.375 µM
41 | CN1CCCC1CCNC(=O)c1cn2c3c(c(NCC4(O)CCCCC4)c(F)cc3c1=O)Oc1cc3ccccc3cc1-2 (centres unmarked) [compound 1665] |  |  |  | 240 nM | 0.75 µM
42 | CN1CCCC1CCNC(=O)c1cn2c3c(c(NCC(O)c4ccccc4)c(F)cc3c1=O)Oc1cc3ccccc3cc1-2 (centres unmarked) [compound 1676] |  |  |  | 190 nM | 0.75 µM
43 | CN1CCCC1CCNC(=O)c1cn2c3c(c(NCCc4ccc(O)c(O)c4)c(F)cc3c1=O)Oc1cc3ccccc3cc1-2 (centres unmarked) [compound 1680] |  |  |  | 1800 nM | 0.75 µM
44 | CN1CCCC1CCNC(=O)c1cn2c3c(c(NCCc4ccc(O)cc4)c(F)cc3c1=O)Oc1cc3ccccc3cc1-2 (centres unmarked) [compound 1681] |  |  |  | 2100 nM | 0.75 µM
45 | CN1CCCC1CCNC(=O)c1cn2c3c(c(NCCCN(CCO)CCO)c(F)cc3c1=O)Oc1cc3ccccc3cc1-2 (centres unmarked) [compound 1686] |  |  |  | 400 nM | 0.375 µM
46 | CN(C)c1cccc(CNc2c(F)cc3c(=O)c(C(=O)NCCC4CCCN4C)cn4c3c2Oc2cc3ccccc3cc2-4)c1 (centres unmarked) [compound 1688] |  |  |  | 250 nM | 0.75 µM
47 | CN1CCC(Nc2c(F)cc3c(=O)c(C(=O)NCCC4CCCN4C)cn4c3c2Oc2cc3ccccc3cc2-4)CC1 (centres unmarked) [compound 1690] |  |  |  | 310 nM | 0.75 µM
48 | O=C(NCCN1CCCC1)c1cn2c3cc4c(cc3oc3c(N5CC6CCCNC6C5)c(F)cc(c1=O)c32)c(=O)c1ccccc14 (centres unmarked) [compound 1726] |  |  |  | 2600 nM | 0.125 µM
49 | CCN(CC)CCCC(C)NC(=O)c1cn2c3c(c(N4CC5CCCNC5C4)c(F)cc3c1=O)Oc1cc3ccccc3cc1-2 (centres unmarked) [compound 1727] |  |  |  | 360 nM | 0.75 µM
50 | O=C(NCCN1CCCC1)c1cn2c3c(c(N4CC5CCCNC5C4)ccc3c1=O)Oc1cc3ccccc3cc1-2 (centres unmarked) [compound 1732] |  |  |  | 200 nM | 0.375 µM
51 | CN1CCC[C@H]1CCNC(=O)c1cn2c3c(c(N4CCC(c5cnccn5)C4)c(F)cc3c1=O)Oc1cc3ccccc3cc1-2 (some centres unmarked) [compound 1742] |  |  |  | 3300 nM | 0.85 µM
52 | CN1CCCC1CCNC(=O)c1cn2c3c(c(N)c(F)cc3c1=O)Oc1c-2ccc2ccccc12 (centres unmarked) [compound 1763] |  |  |  | 3800 nM | 1.5 µM
